Tests used:
[1] = Safety analysis: drug-related treatment-emergent adverse events (TEAE) in three phase I studies; assay type: in vivo, human
Procedure: For a detailed safety analysis for emodepside, based on the entire safety population (pharmacokinetic sample and placebo arms) of the phase I clinical trials the reader is referred to the recently published article by Gillon et al.. In the present study, the safety analysis and exposure–adverse events analysis was performed on all subjects whom were included in the population pharmacokinetic analysis (n = 142), i.e. all subjects who received at least 1 dose of the study drug as LSF solution, ASD-tablet A or ASD-tablet B. Safety was assessed in terms of incidence of a drug-related TEAE (as assessed by the investigator) and reported as Medical Dictionary for Regulatory Activities (MedDRA) code. A TEAE was defined as an event that emerged during treatment and having been absent pretreatment, or that worsened relative to the pretreatment state.

[2] = Linear regression of DBS vs. plasma concentrations; set-up: species or system human; settings: DBS concentration = slope × plasma concentration-0.592; r^2 = 0.987, n = 228
Description: Deuterated emodepside-D16 was used as the internal standard.
Supplementary file pntd.0010219.s008.tif: S1 Fig Linear regression analysis (emodepside DBS vs. plasma concentrations). Observations are represented by black open circles, the black solid line represents the line of identity, and the black dotted line represents the linear regression. DBS concentration = 0.605 × plasma concentration-0.592 (r^2 = 0.987, standard error of estimate, SEE = 5.74, n = 228). (TIF) Click here for additional data file.

CYP3A4 = settings: has been shown; no reference given; cited from earlier work
[3] = Population pharmacokinetic model (NONMEM) of pooled phase I plasma and DBS concentrations
[4] = human, in vivo, po; cited from earlier work
Description: Currently, emodepside is under clinical development for the treatment of onchocerciasis, following a repurposing strategy and a collaboration agreement between DNDi and Bayer AG [26]. The safety, pharmacokinetics and relative bioavailability of emodepside after oral dosing in healthy male subjects have been evaluated in three phase I clinical trials, including a First-in-Human study. […] The long terminal half-life (> 20 d ...

[5] = inter-compartmental clearance, oral, 75 kg adult, n = 142
[6] = nonparametric bootstrap, 75 kg adult

CC(C)C[C@H]1C(=O)O[C@H](Cc2ccc(N3CCOCC3)cc2)C(=O)N(C)[C@@H](CC(C)C)C(=O)O[C@H](C)C(=O)N(C)[C@@H](CC(C)C)C(=O)O[C@H](Cc2ccc(N3CCOCC3)cc2)C(=O)N(C)[C@@H](CC(C)C)C(=O)O[C@H](C)C(=O)N1C [emodepside, Emodepside]
Time to resolution of drug-related TEAEs of interest after onset ([1]; all apart from visual impairment in one subject): ≤ 48 h | Nature and severity of drug-related TEAEs ([1]; all, apart from moderate headaches in two subjects at 40 mg LSF solution): transient in nature and mild in severity | Lag of drug-related TEAE of interest relative to Tmax, most subjects ([1]; in vivo): 0 to 2.5 h | Share of drug-related TEAEs of interest occurring at 1–3 h post-dose ([1]; in vivo): 83% | Time to resolution of visual impairment in one subject ([1]; in vivo): 21 days | Deaths or severe drug-related TEAEs ([1]; n = 142): no deaths or severe drug-related TEAEs reported | Subjects with drug-related TEAEs of interest, % ([1]; n = 142): 19.0% | Abdominal pain, % of subjects with drug-related TEAE ([1]; n = 142, pooled phase I): 0.7% | Balance disorder, % of subjects with drug-related TEAE ([1]; n = 142, pooled phase I): 0.7% | Cough, % of subjects with drug-related TEAE ([1]; n = 142, pooled phase I): 0.7% | Disorientation, % of subjects with drug-related TEAE ([1]; n = 142, pooled phase I): 0.7% | Disturbance in attention, % of subjects with drug-related TEAE ([1]; n = 142, pooled phase I): 0.7% | Euphoric mood, % of subjects with drug-related TEAE ([1]; n = 142, pooled phase I): 1.4% | Eye disorders, % of subjects with drug-related TEAE ([1]; n = 142, pooled phase I): 14.1% | Eye pain, % of subjects with drug-related TEAE ([1]; n = 142, pooled phase I): 0.7% | Feeling of relaxation, % of subjects with drug-related TEAE ([1]; n = 142, pooled phase I): 2.1% | Gastrointestinal disorders, % of subjects with drug-related TEAE ([1]; n = 142, pooled phase I): 2.8% | General disorders and administration site conditions, % of subjects with drug-related TEAE ([1]; n = 142, pooled phase I): 0.7% | Headache, % of subjects with drug-related TEAE ([1]; n = 142, pooled phase I): 4.2% | Hypervigilance, % of subjects with drug-related TEAE ([1]; n = 142, pooled phase I): 0.7% | Muscle spasms, % of subjects with drug-related TEAE ([1]; n = 142, pooled phase I): 0.7% | Musculoskeletal and connective tissue disorders, % of subjects with drug-related TEAE ([1]; n = 142, pooled phase I): 0.7% | Nausea, % of subjects with drug-related TEAE ([1]; n = 142, pooled phase I): 2.1% | Nervous system disorders, % of subjects with drug-related TEAE ([1]; n = 142, pooled phase I): 12.7% | Nervousness, % of subjects with drug-related TEAE ([1]; n = 142, pooled phase I): 0.7% | Oropharyngeal pain, % of subjects with drug-related TEAE ([1]; n = 142, pooled phase I): 0.7% | Paraesthesia oral, % of subjects with drug-related TEAE ([1]; n = 142, pooled phase I): 0.7% | Photophobia, % of subjects with drug-related TEAE ([1]; n = 142, pooled phase I): 1.4% | Photopsia, % of subjects with drug-related TEAE ([1]; n = 142, pooled phase I): 0.7% | Pigmentation disorder, % of subjects with drug-related TEAE ([1]; n = 142, pooled phase I): 0.7% | Psychiatric disorders, % of subjects with drug-related TEAE ([1]; n = 142, pooled phase I): 1.4% | Respiratory, thoracic and mediastinal disorders, % of subjects with drug-related TEAE ([1]; n = 142, pooled phase I): 0.7% | Sensation of foreign body, % of subjects with drug-related TEAE ([1]; n = 142, pooled phase I): 0.7% | Skin and subcutaneous tissue disorders, % of subjects with drug-related TEAE ([1]; n = 142, pooled phase I): 0.7% | Somnolence, % of subjects with drug-related TEAE ([1]; n = 142, pooled phase I): 0.7% | Vision blurred, % of subjects with drug-related TEAE ([1]; n = 142, pooled phase I): 4.9% | Visual acuity reduced, % of subjects with drug-related TEAE ([1]; n = 142, pooled phase I): 0.7% | Visual impairment, % of subjects with drug-related TEAE ([1]; n = 142, pooled phase I): 9.2% | Vomiting, % of subjects with drug-related TEAE ([1]; n = 142, pooled phase I): 0.7% | Subjects with drug-related TEAEs, % ([1]; n = 142, pooled phase I, oral 1–40 mg): 21.8% | Abdominal pain, subjects experiencing drug-related TEAE ([1]; of n = 142, pooled phase I): 1 | Balance disorder, subjects experiencing drug-related TEAE ([1]; of n = 142, pooled phase I): 1 | Cough, subjects experiencing drug-related TEAE ([1]; of n = 142, pooled phase I): 1 | Disorientation, subjects experiencing drug-related TEAE ([1]; of n = 142, pooled phase I): 1 | Disturbance in attention, subjects experiencing drug-related TEAE ([1]; of n = 142, pooled phase I): 1 | Euphoric mood, subjects experiencing drug-related TEAE ([1]; of n = 142, pooled phase I): 2 | Eye disorders, subjects experiencing drug-related TEAE ([1]; of n = 142, pooled phase I): 20 | Eye pain, subjects experiencing drug-related TEAE ([1]; of n = 142, pooled phase I): 1 | Feeling of relaxation, subjects experiencing drug-related TEAE ([1]; of n = 142, pooled phase I): 3 | Gastrointestinal disorders, subjects experiencing drug-related TEAE ([1]; of n = 142, pooled phase I): 4 | General disorders and administration site conditions, subjects experiencing drug-related TEAE ([1]; of n = 142, pooled phase I): 1 | Headache, subjects experiencing drug-related TEAE ([1]; of n = 142, pooled phase I): 6 | Hypervigilance, subjects experiencing drug-related TEAE ([1]; of n = 142, pooled phase I): 1 | Muscle spasms, subjects experiencing drug-related TEAE ([1]; of n = 142, pooled phase I): 1 | Musculoskeletal and connective tissue disorders, subjects experiencing drug-related TEAE ([1]; of n = 142, pooled phase I): 1 | Nausea, subjects experiencing drug-related TEAE ([1]; of n = 142, pooled phase I): 3 | Nervous system disorders, subjects experiencing drug-related TEAE ([1]; of n = 142, pooled phase I): 18 | Nervousness, subjects experiencing drug-related TEAE ([1]; of n = 142, pooled phase I): 1 | Oropharyngeal pain, subjects experiencing drug-related TEAE ([1]; of n = 142, pooled phase I): 1 | Paraesthesia oral, subjects experiencing drug-related TEAE ([1]; of n = 142, pooled phase I): 1 | Photophobia, subjects experiencing drug-related TEAE ([1]; of n = 142, pooled phase I): 2 | Photopsia, subjects experiencing drug-related TEAE ([1]; of n = 142, pooled phase I): 1 | Pigmentation disorder, subjects experiencing drug-related TEAE ([1]; of n = 142, pooled phase I): 1 | Psychiatric disorders, subjects experiencing drug-related TEAE ([1]; of n = 142, pooled phase I): 2 | Respiratory, thoracic and mediastinal disorders, subjects experiencing drug-related TEAE ([1]; of n = 142, pooled phase I): 1 | Sensation of foreign body, subjects experiencing drug-related TEAE ([1]; of n = 142, pooled phase I): 1 | Skin and subcutaneous tissue disorders, subjects experiencing drug-related TEAE ([1]; of n = 142, pooled phase I): 1 | Somnolence, subjects experiencing drug-related TEAE ([1]; of n = 142, pooled phase I): 1 | Vision blurred, subjects experiencing drug-related TEAE ([1]; of n = 142, pooled phase I): 7 | Visual acuity reduced, subjects experiencing drug-related TEAE ([1]; of n = 142, pooled phase I): 1 | Visual impairment, subjects experiencing drug-related TEAE ([1]; of n = 142, pooled phase I): 13 | Vomiting, subjects experiencing drug-related TEAE ([1]; of n = 142, pooled phase I): 1 | Subjects with both eye disorders and nervous system disorders ([1]; of the 27 subjects with TEAE of interest): 41% | Subjects with drug-related TEAEs of interest (eye disorders and nervous system disorders), number ([1]; out of 142 subjects): 27 | Subjects with drug-related TEAEs, number ([1]; out of 142 subjects): 31 | Incidence of non drug-related infections and infestations, active treatment arms ([1]; vs. 0% placebo, p=0.13 (two-sided Fisher's exact test)): 10.5% | Slope of linear regression, DBS concentration vs. plasma concentration [2]: 0.605 | Enzyme catalyzing oxidative metabolism (CYP3A4): predominantly catalyzed by CYP3A4 | Venous plasma–DBS scaling factor, population estimate (%RSE) ([3]; DBS concentration as % of venous plasma concentration, DBS from 12 subjects): 61.8 (2.9) % | Vc/F, population estimate (%RSE) ([3]; central volume of distribution, oral, 75 kg adult, n = 142): 52.4 (3.4) L | Maximum difference in MTT between the lowest and the highest dose ([3]; dose range 1–40 mg, 0.012–0.667 mg per kg body weight per day): 70% | Q1/F, population estimate (%RSE) [3, 5]: 4.60 (5.1) L/h | Q2/F, population estimate (%RSE) [3, 5]: 8.45 (2.9) L/h | Dose on MTT, population estimate (%RSE) ([3]; linear, dose range 1–40 mg): 105 (22.3) % per mg /kg/day | CL/F ([3]; male, human, in vivo, po): 21.5 mL/min | MTT, population estimate (%RSE) ([3]; mean absorption transit time, oral, reference LSF solution, fasted, 75 kg adult, n = 142 healthy male subjects): 0.488 (3.5) h | Dose on MTT, bootstrapping median (95% CI) ([3]; nonparametric bootstrap): 104.5 (62.9–154) % per mg /kg/day | Venous plasma–DBS scaling factor, bootstrapping median (95% CI) ([3]; nonparametric bootstrap): 61.8 (58.2–65.2) % | MTT, bootstrapping median (95% CI) ([3]; nonparametric bootstrap, 860 successful runs of 1,000, 75 kg adult): 0.489 (0.456–0.521) h | CL/F, bootstrapping median (95% CI) [3, 6]: 1.29 (1.18–1.40) L/h | Q1/F, bootstrapping median (95% CI) [3, 6]: 4.60 (4.14–5.04) L/h | Q2/F, bootstrapping median (95% CI) [3, 6]: 8.43 (7.97–8.87) L/h | Vc/F, bootstrapping median (95% CI) [3, 6]: 52.4 (49.2–55.8) L | Vp1 / F, bootstrapping median (95% CI) [3, 6]: 45.1 (38.0–53.4) L | Vp2/F, bootstrapping median (95% CI) [3, 6]: 647 (592–707) L | Dose proportionality of exposure ([3]; present study population, 1–40 mg): dose-proportional | Food intake on MTT, population estimate (%RSE) ([3]; reference: fasted state): 114 (22.6) % | Reduction in F when the dose was given together with food ([3]; reference: fasted state): 24.4% | Food intake on MTT, bootstrapping median (95% CI) ([3]; reference: fasted state, nonparametric bootstrap): 114.7 (69.0–168) % | Vp1 / F, population estimate (%RSE) ([3]; volume of distribution of peripheral compartment 1, oral, 75 kg adult, n = 142): 44.4 (8.7) L | Vp2/F, population estimate (%RSE) ([3]; volume of distribution of peripheral compartment 2, oral, 75 kg adult, n = 142): 647 (4.5) L | Terminal half-life [4]: > 20 days

Source: PMC8912909, “Drug development for the treatment of onchocerciasis: Population pharmacokinetic and adverse events modeling of emodepside” (PLoS Neglected Tropical Diseases, 2022)
